Data: the Kinase Knowledgebase extract (Sharma et al. 2016)
“And” between values parts separate entries of the source, which are not always exact repeats. Identical values can stand only once.

How the values were obtained:
PIK3CG (human) = PIK3CG (human) (UniProt P48736); test: Assessment of PIK3CG Kinase Activity
PIK3CG;PIK3CA (human) [1] = molecular target: PIK3CG;PIK3CA (human) (UniProt P48736); test: Assessment of Antiproliferation Activity in MDA-MB-361 Cells
PIK3CG;PIK3CA (human) [2] = molecular target: PIK3CG;PIK3CA (human) (UniProt P48736); test: Assessment of Antiproliferation Activity in PC3-MM2 Cells; settings: pc3mm2
PIK3CA (human) = PIK3CA (human) (UniProt P42336); test: Assessment of PIK3CA Kinase Activity
Chain of PIK3CA (human) (P42336 whole entry, looked up): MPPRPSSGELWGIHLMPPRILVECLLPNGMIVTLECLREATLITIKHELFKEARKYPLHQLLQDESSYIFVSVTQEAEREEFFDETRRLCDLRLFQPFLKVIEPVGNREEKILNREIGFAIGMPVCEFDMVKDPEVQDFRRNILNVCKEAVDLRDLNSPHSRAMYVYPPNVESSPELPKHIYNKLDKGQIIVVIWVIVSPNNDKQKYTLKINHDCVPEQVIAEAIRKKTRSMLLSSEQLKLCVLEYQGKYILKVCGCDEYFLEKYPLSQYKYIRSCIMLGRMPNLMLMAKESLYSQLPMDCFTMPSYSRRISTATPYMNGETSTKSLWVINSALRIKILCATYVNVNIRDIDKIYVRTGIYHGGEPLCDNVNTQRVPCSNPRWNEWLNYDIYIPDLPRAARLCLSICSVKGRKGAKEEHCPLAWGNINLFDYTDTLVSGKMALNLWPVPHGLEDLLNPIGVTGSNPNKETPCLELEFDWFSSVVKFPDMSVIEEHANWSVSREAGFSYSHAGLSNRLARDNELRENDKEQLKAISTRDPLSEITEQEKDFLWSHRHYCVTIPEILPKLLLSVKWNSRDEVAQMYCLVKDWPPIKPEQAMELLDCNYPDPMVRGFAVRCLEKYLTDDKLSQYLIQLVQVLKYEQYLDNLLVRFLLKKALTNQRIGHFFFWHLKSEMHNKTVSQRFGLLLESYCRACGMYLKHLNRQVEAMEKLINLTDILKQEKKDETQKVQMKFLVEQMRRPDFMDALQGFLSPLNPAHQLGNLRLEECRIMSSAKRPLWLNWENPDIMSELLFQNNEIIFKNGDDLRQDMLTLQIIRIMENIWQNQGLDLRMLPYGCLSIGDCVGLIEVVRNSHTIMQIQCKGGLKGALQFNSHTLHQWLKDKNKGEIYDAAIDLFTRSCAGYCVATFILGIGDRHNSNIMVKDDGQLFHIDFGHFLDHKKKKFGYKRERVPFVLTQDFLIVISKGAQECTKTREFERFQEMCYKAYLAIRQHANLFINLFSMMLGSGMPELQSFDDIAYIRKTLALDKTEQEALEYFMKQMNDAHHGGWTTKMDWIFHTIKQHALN

PIK3CG;PIK3CA (human) [3] = molecular target: PIK3CG;PIK3CA (human) (UniProt P48736); test: Assessment of Antiproliferation Activity in LNCaP Cells

Chain of PIK3CG;PIK3CA (human) (P48736 whole entry, looked up): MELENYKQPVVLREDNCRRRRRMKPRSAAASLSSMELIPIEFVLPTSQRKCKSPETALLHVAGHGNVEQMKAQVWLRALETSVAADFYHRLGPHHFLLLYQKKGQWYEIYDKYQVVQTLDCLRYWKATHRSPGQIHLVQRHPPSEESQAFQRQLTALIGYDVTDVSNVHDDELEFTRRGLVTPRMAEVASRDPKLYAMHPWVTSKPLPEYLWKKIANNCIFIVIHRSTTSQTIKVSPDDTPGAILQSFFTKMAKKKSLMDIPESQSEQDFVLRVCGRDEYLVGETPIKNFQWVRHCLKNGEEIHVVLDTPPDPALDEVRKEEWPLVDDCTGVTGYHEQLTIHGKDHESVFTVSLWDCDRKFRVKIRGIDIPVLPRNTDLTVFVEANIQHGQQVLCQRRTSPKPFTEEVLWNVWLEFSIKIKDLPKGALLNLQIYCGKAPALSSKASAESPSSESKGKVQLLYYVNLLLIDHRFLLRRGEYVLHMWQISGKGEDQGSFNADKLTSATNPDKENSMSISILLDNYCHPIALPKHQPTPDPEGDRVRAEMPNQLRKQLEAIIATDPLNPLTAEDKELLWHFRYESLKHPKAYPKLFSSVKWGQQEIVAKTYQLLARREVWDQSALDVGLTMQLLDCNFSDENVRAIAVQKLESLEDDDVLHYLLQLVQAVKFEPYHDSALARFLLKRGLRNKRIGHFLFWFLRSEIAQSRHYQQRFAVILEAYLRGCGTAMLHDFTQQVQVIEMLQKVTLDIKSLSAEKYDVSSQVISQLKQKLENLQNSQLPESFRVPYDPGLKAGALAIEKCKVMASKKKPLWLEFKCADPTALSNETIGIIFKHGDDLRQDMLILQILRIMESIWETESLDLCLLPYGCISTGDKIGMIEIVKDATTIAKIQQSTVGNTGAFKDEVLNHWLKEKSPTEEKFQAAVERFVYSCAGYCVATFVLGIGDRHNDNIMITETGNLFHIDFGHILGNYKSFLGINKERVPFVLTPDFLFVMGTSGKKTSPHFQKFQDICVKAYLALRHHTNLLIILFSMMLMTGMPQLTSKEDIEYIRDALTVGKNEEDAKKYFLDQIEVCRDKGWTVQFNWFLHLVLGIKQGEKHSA
Chain of PIK3CG (human) (P48736 whole entry, looked up): as above

Compound | IC50 (PIK3CG (human)) | IC50 (PIK3CG;PIK3CA (human) [1]) [nM] | IC50 (PIK3CG;PIK3CA (human) [2]) [nM] | IC50 (PIK3CA (human)) | IC50 (PIK3CG;PIK3CA (human) [3]) [nM]
CC(C)N1CCN(C(=O)c2ccc(NC(=O)Nc3ccc(-c4nc(N5CCCCC5)nc(N5CCOCC5)n4)cc3)cc2)CC1 | 58.5 nM | 43 | 193 | – | –
CCN(CC)C(=O)[n+]1ccc(NC(=O)Nc2ccc(-c3nc(N4CCOCC4)nc(N4C5CCC4COC5)n3)cc2)cc1 | 444 nM and 606 nM | – | – | 36 nM and 28 nM | –
CN(C)CCOc1ccc(NC(=O)Nc2ccc(-c3nc(N4CCSCC4)nc(N4C5CCC4COC5)n3)cc2)cc1 | 2430 nM | – | – | 586 nM | –
O=C(O)CNC1CCN(c2nc(-c3ccc(NC(=O)Nc4ccncc4)cc3)nc(N3CC4CCC(C3)O4)n2)CC1 | 10000 nM | – | – | – | –
O=C(Nc1ccncc1)Nc1ccc(-c2nc(N3CCC(N4CCOCC4)CC3)nc(N3CC4CCC(C3)O4)n2)cc1 | 4000 nM | – | – | 1850 nM | 1000
CN(C)C1CCN(C(=O)c2ccc(NC(=O)Nc3ccc(-c4nc(-c5ccccc5)nc(N5CCOCC5)n4)cc3)cc2)CC1 | 20.5 nM | 58 | 253 | 3.5 nM | –
O=C(Nc1ccc(-c2nc(OCCN3CCCCC3)nc(N3CC4CCC(C3)O4)n2)cc1)Nc1cccnc1 | 10000 nM | – | – | – | –
CNC(=O)Nc1ccc(-c2nc(N3CC4CCC(C3)O4)nc(N3CC4CCC(C3)O4)n2)cc1 | 10000 nM | – | – | – | –
CN(C)C1CCN(c2ccc(NC(=O)Nc3ccc(-c4nc(N5C6CCC5COC6)nc(N5C6CCC5COC6)n4)cc3)cc2)CC1 | – | – | – | 3090 nM | 1
FC(F)c1nc2ccccc2n1-c1nc(N2CCOCC2)nc(N2CC3CCC(C2)O3)n1 | 43 nM | – | – | 24 nM | –
CC(C)Nc1nc(-c2ccc(NC(=O)NC3CC3)cc2)nc(N2CC3CCC(C2)O3)n1 | 10000 nM | – | – | – | –
FC(F)c1nc2ccccc2n1-c1nc(N2CC3CCC(C2)O3)nc(N2CC3CCC(C2)O3)n1 | 459 nM | – | – | 124 nM | –
CC(C)N1CCN(C(=O)c2ccc(NC(=O)Nc3ccc(-c4nc(C5CCOCC5)nc(N5CCOCC5)n4)cc3)cc2)CC1 | 9.5 nM | – | – | 3.2 nM | –
O=C(Nc1ccc(C(=O)Cc2ccccn2)cc1)Nc1ccc(-c2nc(N3CCOCC3)nc(N3CCOCC3)n2)cc1 | 23 nM | 68 | 31 | 3 nM | –
COCCNc1ccc(NC(=O)Nc2ccc(-c3nc(N4C5CCC4COC5)nc(N4C5CCC4COC5)n3)cc2)cc1 | 7140 nM | – | – | 1100 nM | 1.2
CN(C)CCN(C)C(=O)c1ccc(NC(=O)Nc2ccc(-c3nc(C4CCOCC4)nc(N4CCOCC4)n3)cc2)cc1 | – | – | – | 0.8 nM | –
CC(C)Nc1nc(-c2ccc(NC(=O)Nc3ccc(N4CCN(C)CC4)nc3)cc2)nc(N2CC3CCC(C2)O3)n1 | 7030 nM | – | – | 521 nM | 50

Compound | IC50 (PIK3CG (human)) | IC50 (PIK3CG;PIK3CA (human) [1]) [nM] | IC50 (PIK3CG;PIK3CA (human) [2]) [nM] | IC50 (PIK3CA (human)) | IC50 (PIK3CG;PIK3CA (human) [3]) [nM]
O=C(Nc1ccc(NCCO)cc1)Nc1ccc(-c2nc(N3C4CCC3COC4)nc(N3C4CCC3COC4)n2)cc1 | 8040 nM | – | – | 1460 nM | 70
C[C@H]1COCCN1c1nc(-c2ccc(NC(=O)Nc3ccc(C(=O)NCCN4CCCC4)cc3)cc2)nc(N2CCOC[C@@H]2C)n1 | 378 nM | 26 | 106 | 22 nM | –
Cc1ccc(-c2nc(-c3ccc(NC(=O)Nc4cccc(C(=O)N5CCC(N(C)C)CC5)c4)cc3)nc(N3CCOCC3)n2)cc1 | 658 nM | – | – | 462 nM | –
O=C(Nc1ccc(C(=O)NCCN2CCCC2)cc1)Nc1ccc(-c2nc(O[C@H]3CCOC3)nc(N3CCOCC3)n2)cc1 | – | – | 27 | – | –
CN1CCCN(c2nc(-c3ccc(NC(=O)Nc4cccnc4)cc3)nc(N3CC4CCC(C3)O4)n2)C1 | 10000 nM | – | – | – | –
CC(C)Nc1nc(-c2ccc(NC(=O)NCCO)cc2)nc(N2CC3CCC(C2)O3)n1 | 10000 nM | – | – | – | –
CN1CCC(Nc2ccc(NC(=O)Nc3ccc(-c4nc(N5C6CCC5COC6)nc(N5C6CCC5COC6)n4)cc3)cc2)CC1 | – | – | – | 6340 nM | 3
O=C(Nc1ccc(-c2nc(N3C4CCC3COC4)nc(N3C4CCC3COC4)n2)cc1)N1CCNCC1 | 10000 nM | – | – | – | –
Cc1ccc(-c2nc(-c3ccc(NC(=O)Nc4ccc(C(=O)N5CCCC5)cc4)cc3)nc(N3CCOCC3)n2)cc1 | 72 nM | 113 | 522 | 12.5 nM | –
CN(C)CCNC(=O)c1ccc(NC(=O)Nc2ccc(-c3nc(N4CCCCC4)nc(N4CCOCC4)n3)cc2)cc1 | 57.5 nM | – | – | 3.5 nM | –
CN1CCN(c2ccc(NC(=O)Nc3ccc(-c4nc(N5C6CCC5COC6)nc(N5[C@H](CO)CC[C@@H]5CO)n4)cc3)cc2)CC1 | 10000 nM | – | – | – | –
CN(C)CCN(C)c1ccc(NC(=O)Nc2ccc(-c3nc(N4C5CCC4COC5)nc(N4C5CCC4COC5)n3)cc2)cc1 | – | – | – | 6030 nM | 2.2
NCCCNc1nc(-c2ccc(NC(=O)Nc3cccnc3)cc2)nc(N2CC3CCC(C2)O3)n1 | 10000 nM | – | – | – | –
CN(C)CCN(C)C(=O)c1ccc(NC(=O)Nc2ccc(-c3nc(N4CCC4)nc(N4CCOCC4)n3)cc2)cc1 | 36 nM | – | – | 2 nM | –
O=C(Nc1ccc(-c2nc(NCCO)nc(N3CC4CCC(C3)O4)n2)cc1)Nc1cccnc1 | 10000 nM | – | – | – | –
Nc1ccc(-c2nc(-c3ccc(NC(=O)Nc4cccnc4)cc3)nc(N3CC4CCC(C3)O4)n2)cc1 | – | – | – | 832 nM | 290
O=C(Nc1ccc(-c2nc(N3C[C@@H]4C[C@H]3CO4)nc(N3C[C@@H]4C[C@H]3CO4)n2)cc1)Nc1ccc(N2CCNCC2)cc1 | – | – | – | – | 100
